ChEMBL document CHEMBL1155065, “A serine protease inhibitor from hemolymph of green mussel, Perna viridis” (Bioorg Med Chem Lett, 2008)
The source made the active and inactive calls. The rule behind the calls is not given here.

Experiments:
[1] = Inhibition of trypsin at 37 degC
[2] = Inhibition of chymotrypsin
[3] = Inhibition of trypsin at 32 degC
[4] = Inhibition of trypsin by classical double reciprocal plot
[5] = Inhibition of trypsin
[6] = Inhibition of trypsin by Dixon plot
[7] = Inhibition of trypsin at 42 degC

Ki [1]: 97.1 µM
Activity [2]: inactive
Ki [3]: 102 µM
Ki [4]: 105 µM
IC50 [5]: 102 µM
Ki [6]: 97.1 µM
Ki [7]: 94 µM
Structure (SMILES): O=C(O)c1ccc(C(=O)O)c2c1c(C(=O)O)c1cccnc1[n+]2C(=O)O
